According to US11535643B2, “Macrolides with modified desosamine sugars and uses thereof” (President and Fellows of Harvard College, priority 2015, dated 2022):
In brackets after ≈: the same amount, converted by molar mass.

Tests used:
Type in all cases: cell-based
A. baumannii = test: Broth dilution MIC determination (CLSI) against A. baumannii strains; conditions: for MIC A. baumannii ATCC19606: ATCC19606, Strain No. MP-15
Procedure, shortened: (§1)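 Strains, including multidrug-resistant and macrolide-resistant ones, were exposed to macrolides in broth dilution per CLSI standards, and the lowest inhibiting concentration was recorded as MIC. Azithromycin and solithromycin were run alongside.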

S. pneumoniae = test: Broth dilution MIC determination (CLSI) against S. pneumoniae strains; conditions: for MIC S. pneumoniae ATCC49619: ATCC49619, Strain No. MP-21
Procedure, shortened: as §1

S. pyogenes = test: Broth dilution MIC determination (CLSI) against S. pyogenes strains; conditions: for MIC S. pyogenes ATCC19615: ATCC19615, Strain No. MP-19; for MIC S. pyogenes mac resistant: Strain No. MP-625 UNT-014
Procedure, shortened: as §1

E. coli = test: Broth dilution MIC determination (CLSI) against E. coli strains; conditions: for MIC E. coli ATCC25922: ATCC25922, Strain No. MP-4; for MIC E. coli ATCC25922:tolC: Strain No. MP-9; for MIC E. coli clinical: Strain No. MP541; for MIC E. coli clinical-cErm: Strain No. MP532
Procedure, shortened: as §1

S. aureus = test: Broth dilution MIC determination (CLSI) against S. aureus strains; conditions: for MIC S. aureus ATCC29213: ATCC29213, Strain No. MP-12; for MIC S. aureus ATCCBAA-977: ATCCBAA-977, Strain No. MP-17; for MIC S. aureus (MRSA) GISA USA600: GISA USA600, Strain No. MP-619 UNT-120; for MIC S. aureus (MRSA) ST-228 cErm: Strain No. MP-513; for MIC S. aureus (MRSA) USA100: USA100, Strain No. MP-618 UNT-096; for MIC S. aureus (MRSA) USA300: USA300, Strain No. MP-549; for MIC S. aureus (MRSA) ermA phenotype: Strain No. MP-620 UNT-146
Procedure, shortened: as §1

E. faecalis = test: Broth dilution MIC determination (CLSI) against E. faecalis strains; conditions: for MIC E. faecalis ATCC29212: ATCC29212, Strain No. MP-24; for MIC E. faecalis van resistant: Strain No. UNT-039
Procedure, shortened: as §1

K. pneumoniae = test: Broth dilution MIC determination (CLSI) against K. pneumoniae strains; conditions: for MIC K. pneumoniae ATCC10031: ATCC10031, Strain No. MP-14
Procedure, shortened: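 Azithromycin and solithromycin served as controls; MICs were obtained by standard CLSI broth dilution on a strain panel including multidrug-resistant and macrolide-resistant isolates.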

P. aeruginosa = test: Broth dilution MIC determination (CLSI) against P. aeruginosa strains; conditions: for MIC P. aeruginosa ATCC27853: ATCC27853, Strain No. MP-3; for MIC P. aeruginosa PAO1: PAO1, Strain No. MP-7; for MIC P. aeruginosa PAO1:mex: Strain No. MP-8
Procedure, shortened: as §1

CCC1OC(=O)C(C)C(=O)C(C)C(OC2OC(C)CC(n3ccnc3)C2O)C(C)(OC)CC(C)CNC(C)C2N(CCCCn3cc(-c4cccc(N)c4)nn3)C(=O)OC12C (stereo not drawn) [FSM-120394]
MIC A. baumannii ATCC19606 (A. baumannii): 64 µg/mL (≈ 75.2 µM)
MIC A. baumannii clinical (A. baumannii; Strain No. MP576): >64 µg/mL
MIC A. baumannii clinical (A. baumannii; Strain No. MP577): >64 µg/mL
MIC S. pneumoniae ATCC49619 (S. pneumoniae): 0.5 µg/mL (≈ 0.588 µM)
MIC S. pneumoniae mefA (S. pneumoniae; Strain No. MP-626 UNT-038): 0.5 µg/mL (≈ 0.588 µM)
MIC S. pneumoniae mefA (S. pneumoniae; Strain No. MP-627 UNT-039): 0.25 µg/mL (≈ 0.294 µM)
MIC S. pyogenes ATCC19615 (S. pyogenes): 0.5 µg/mL (≈ 0.588 µM)
MIC S. pyogenes mac resistant (S. pyogenes): 4 µg/mL (≈ 4.7 µM)
MIC E. coli ATCC25922 (E. coli): >64 µg/mL
MIC E. coli ATCC25922:tolC (E. coli): 16 µg/mL (≈ 18.8 µM)
MIC E. coli clinical (E. coli): >64 µg/mL
MIC E. coli clinical-cErm (E. coli): >64 µg/mL
MIC S. aureus ATCC29213 (S. aureus): >64 µg/mL
MIC S. aureus ATCCBAA-977 (S. aureus): >64 µg/mL
MIC S. aureus (MRSA) GISA USA600 (S. aureus): >64 µg/mL
MIC S. aureus (MRSA) ST-228 cErm (S. aureus): >64 µg/mL
MIC S. aureus (MRSA) USA100 (S. aureus): >64 µg/mL
MIC S. aureus (MRSA) USA300 (S. aureus): >64 µg/mL
MIC S. aureus (MRSA) ermA phenotype (S. aureus): >64 µg/mL
MIC E. faecalis ATCC29212 (E. faecalis): 4 µg/mL (≈ 4.7 µM)
MIC E. faecalis van resistant (E. faecalis): >64 µg/mL
MIC K. pneumoniae ATCC10031 (K. pneumoniae): 16 µg/mL (≈ 18.8 µM)
MIC K. pneumoniae clinical (K. pneumoniae; Strain No. MP546): >64 µg/mL
MIC K. pneumoniae clinical (K. pneumoniae; Strain No. MP548): >64 µg/mL
MIC P. aeruginosa ATCC27853 (P. aeruginosa): >64 µg/mL
MIC P. aeruginosa PAO1 (P. aeruginosa): >64 µg/mL
MIC P. aeruginosa PAO1:mex (P. aeruginosa): >64 µg/mL

CCC1OC(=O)C(C)C(=O)C(C)C(OC2OC(C)CC(n3cccc3)C2O)C(C)(OC)CC(C)CNC(C)C2N(CCCCn3cc(-c4cccc(N)c4)nn3)C(=O)OC12C (stereo not drawn) [FSM-120362]
MIC A. baumannii ATCC19606 (A. baumannii): >64 µg/mL
MIC A. baumannii clinical (A. baumannii; Strain No. MP576): >32 µg/mL
MIC A. baumannii clinical (A. baumannii; Strain No. MP577): >32 µg/mL
MIC S. pneumoniae ATCC49619 (S. pneumoniae): 8 µg/mL (≈ 9.41 µM)
MIC S. pneumoniae mefA (S. pneumoniae; Strain No. MP-626 UNT-038): 4 µg/mL (≈ 4.71 µM)
MIC S. pneumoniae mefA (S. pneumoniae; Strain No. MP-627 UNT-039): 8 µg/mL (≈ 9.41 µM)
MIC S. pyogenes ATCC19615 (S. pyogenes): 2 µg/mL (≈ 2.35 µM)
MIC S. pyogenes mac resistant (S. pyogenes): 16 µg/mL (≈ 18.8 µM)
MIC E. coli ATCC25922 (E. coli): >32 µg/mL
MIC E. coli ATCC25922:tolC (E. coli): >64 µg/mL
MIC E. coli clinical (E. coli): >32 µg/mL
MIC E. coli clinical-cErm (E. coli): >32 µg/mL
MIC S. aureus ATCC29213 (S. aureus): >64 µg/mL
MIC S. aureus ATCCBAA-977 (S. aureus): >64 µg/mL
MIC S. aureus (MRSA) GISA USA600 (S. aureus): >32 µg/mL
MIC S. aureus (MRSA) ST-228 cErm (S. aureus): >64 µg/mL
MIC S. aureus (MRSA) USA100 (S. aureus): >64 µg/mL
MIC S. aureus (MRSA) USA300 (S. aureus): >64 µg/mL
MIC S. aureus (MRSA) ermA phenotype (S. aureus): >32 µg/mL
MIC E. faecalis ATCC29212 (E. faecalis): 64 µg/mL (≈ 75.3 µM)
MIC E. faecalis van resistant (E. faecalis): >32 µg/mL
MIC K. pneumoniae ATCC10031 (K. pneumoniae): >64 µg/mL
MIC K. pneumoniae clinical (K. pneumoniae; Strain No. MP546): >32 µg/mL
MIC K. pneumoniae clinical (K. pneumoniae; Strain No. MP548): >32 µg/mL
MIC P. aeruginosa ATCC27853 (P. aeruginosa): >32 µg/mL
MIC P. aeruginosa PAO1 (P. aeruginosa): >32 µg/mL
MIC P. aeruginosa PAO1:mex (P. aeruginosa): >64 µg/mL

CCC1OC(=O)C(C)C(=O)C(C)C(OC2OC(C)CC(NCc3cccnc3)C2O)C(C)(OC)CC(C)CNC(C)C2N(CCCCn3cc(-c4cccc(N)c4)nn3)C(=O)OC12C (stereo not drawn) [FSM-120384]
MIC (A. baumannii; A. baumannii ATCC19606, strain MP-15 (Table N2)): 64 µg/mL (≈ 71.8 µM)
MIC (A. baumannii; A. baumannii clinical, strain MP576 (Table N2)): >64 µg/mL
MIC (A. baumannii; A. baumannii clinical, strain MP577 (Table N2)): >64 µg/mL
MIC (S. pneumoniae; S. pneumoniae ATCC49619, strain MP-21 (Table N2)): 2 µg/mL (≈ 2.24 µM)
MIC (S. pneumoniae; S. pneumoniae mefA, strain MP-626 UNT-038 (Table N2)): 0.5 µg/mL (≈ 0.561 µM)
MIC (S. pneumoniae; S. pneumoniae mefA, strain MP-627 UNT-039 (Table N2)): 1 µg/mL (≈ 1.12 µM)
MIC (S. pyogenes; S. pyogenes ATCC19615, strain MP-19 (Table N2)): 1 µg/mL (≈ 1.12 µM)
MIC (S. pyogenes; S. pyogenes mac resistant, strain MP-625 UNT-014 (Table N2)): 4 µg/mL (≈ 4.49 µM)
MIC (E. coli; E. coli ATCC25922, strain MP-4 (Table N2)): >64 µg/mL
MIC (E. coli; E. coli ATCC25922:tolC, strain MP-9 (Table N2)): 8 µg/mL (≈ 8.98 µM)
MIC (E. coli; E. coli clinical, strain MP541 (Table N2)): >64 µg/mL
MIC (E. coli; E. coli clinical-cErm, strain MP532 (Table N2)): >64 µg/mL
MIC (S. aureus; S. aureus (MRSA) GISA USA600, strain MP-619 UNT-120 (Table N2)): >64 µg/mL
MIC (S. aureus; S. aureus (MRSA) ST-228 cErm, strain MP-513 (Table N2)): >64 µg/mL
MIC (S. aureus; S. aureus (MRSA) USA100, strain MP-618 UNT-096 (Table N2)): >64 µg/mL
MIC (S. aureus; S. aureus (MRSA) USA300, strain MP-549 (Table N2)): >64 µg/mL
MIC (S. aureus; S. aureus (MRSA) ermA phenotype, strain MP-620 UNT-146 (Table N2)): >64 µg/mL
MIC (S. aureus; S. aureus ATCC29213, strain MP-12 (Table N2)): >64 µg/mL
MIC (S. aureus; S. aureus ATCCBAA-977, strain MP-17 (Table N2)): >64 µg/mL
MIC (E. faecalis; E. faecalis ATCC29212, strain MP-24 (Table N2)): 32 µg/mL (≈ 35.9 µM)
MIC (E. faecalis; E. faecalis van resistant, strain UNT-039 (Table N2)): >64 µg/mL
MIC (K. pneumoniae; K pneumomae ATCC10031, strain MP-14 (Table N2)): 16 µg/mL (≈ 18 µM)
MIC (K. pneumoniae; K. pneumoniae clinical, strain MP546 (Table N2)): >64 µg/mL
MIC (K. pneumoniae; K. pneumoniae clinical, strain MP548 (Table N2)): >64 µg/mL
MIC (P. aeruginosa; P. aeruginosa ATCC27853, strain MP-3 (Table N2)): >64 µg/mL
MIC (P. aeruginosa; P. aeruginosa PAO1, strain MP-7 (Table N2)): >64 µg/mL
MIC (P. aeruginosa; P. aeruginosa PAO1:mex, strain MP-8 (Table N2)): >64 µg/mL
